From the NIST ThermoML archive (doi:10.1021/je049610v)

Assays:
[1] = refractive index (Na D-line) (dimensionless); xn = mol fraction of the nth substance listed; settings: 101 kPa, Liquid
[2] = xn = mol fraction of the nth substance listed; settings: 101 kPa, Liquid

COc1ccccc1 [anisole] + CCOC(=O)C(=O)OCC
x1 = 1
Settings	mass density, 298.15 K [kg/m3]	mass density, 303.15 K [kg/m3]	mass density, 308.15 K [kg/m3]	refractive index, 298.15 K	refractive index, 303.15 K	refractive index, 308.15 K	speed of sound, 298.15 K [m/s]	viscosity, 298.15 K [mPa·s]	viscosity, 303.15 K [mPa·s]	viscosity, 308.15 K [mPa·s]
[1]	–	–	–	1.5148	1.5124	1.5092	–	–	–	–
[2]	988.9	984.1	979.4	–	–	–	1410	0.992	0.918	0.853

COc1ccccc1 [anisole] + CN(C)C=O
Settings	mass density, 298.15 K [kg/m3]	mass density, 303.15 K [kg/m3]	mass density, 308.15 K [kg/m3]	refractive index, 298.15 K	refractive index, 303.15 K	refractive index, 308.15 K	speed of sound, 298.15 K [m/s]	viscosity, 298.15 K [mPa·s]	viscosity, 303.15 K [mPa·s]	viscosity, 308.15 K [mPa·s]
[1], x1 = 0.1004	–	–	–	1.4407	1.4381	1.4356	–	–	–	–
[1], x1 = 0.196	–	–	–	1.4513	1.4487	1.4462	–	–	–	–
[1], x1 = 0.2939	–	–	–	1.4614	1.4587	1.4558	–	–	–	–
[1], x1 = 0.3966	–	–	–	1.4708	1.4683	1.4656	–	–	–	–
[1], x1 = 0.4975	–	–	–	1.4798	1.4771	1.4744	–	–	–	–
[1], x1 = 0.5983	–	–	–	1.4878	1.4852	1.4825	–	–	–	–
[1], x1 = 0.6953	–	–	–	1.4953	1.4928	1.4902	–	–	–	–
[1], x1 = 0.7984	–	–	–	1.5024	1.5	1.4973	–	–	–	–
[1], x1 = 0.9042	–	–	–	1.5099	1.5071	1.5043	–	–	–	–
[1], x1 = 1	–	–	–	1.5148	1.5124	1.5092	–	–	–	–
[2], x1 = 0.1004	951	946.6	942.3	–	–	–	1456	0.833	0.787	0.739
[2], x1 = 0.196	957	952.7	948.2	–	–	–	1451	0.859	0.81	0.76
[2], x1 = 0.2939	962.9	958.2	953.9	–	–	–	1445	0.886	0.833	0.78
[2], x1 = 0.3966	968.5	964.1	959.7	–	–	–	1438	0.912	0.856	0.799
[2], x1 = 0.4975	973.4	968.8	964.4	–	–	–	1432	0.937	0.878	0.819
[2], x1 = 0.5983	977.6	973.2	968.7	–	–	–	1427	0.957	0.897	0.836
[2], x1 = 0.6953	981.2	976.9	972.4	–	–	–	1422	0.977	0.913	0.851
[2], x1 = 0.7984	984.7	980.3	975.9	–	–	–	1418	0.994	0.928	0.863
[2], x1 = 0.9042	987.7	983.3	978.5	–	–	–	1413	1.006	0.938	0.871
[2], x1 = 1	988.9	984.1	979.4	–	–	–	1410	0.992	0.919	0.853
